From patent publication US20200239420A1, “MODULATORS OF INDOLEAMINE 2,3-DIOXYGENASE” (GLAXOSMITHKLINE INTELLECTUAL PROPERTY DEVELOPMENT LIMITED, priority 2017, published 2020)

Tests used:
[1] = test system: human peripheral blood mononuclear cells (PBMC); assay: PBMC cytotoxicity assay (CellTiter-Glo); type: cell-based; details: 48 h; IFN-γ/LPS-stimulated human PBMC, 2 days, CellTiter-Glo cytotoxicity (pCC50); read-out: PBMC TOX pIC50 (converted)
Experimental: (§1) Compounds of the present invention were tested via high-throughput cellular assays utilizing detection of kynurenine via mass spectrometry and cytotoxicity as end-points. For the mass spectrometry and cytotoxicity assays, human peripheral blood mononuclear cells (PBMC) (PB003F; AllCells®, Alameda, Calif.) were stimulated with human interferon-γ (IFN-γ) (Sigma-Aldrich Corporation, St. Louis, Mo.) and lipopolysaccharide from Salmonella minnesota (LPS) (Invivogen, San Diego, Calif.) to induce the expression of indoleamine 2, 3-dioxygenase (IDO1). Compounds with IDO1 inhibitory properties decreased the amount of kynurenine produced by the cells via the tryptophan catabolic pathway. Cellular toxicity due to the effect of compound treatment was measured using CellTiter-Glo® reagent (CTG) (Promega Corporation, Madison, Wis.), which is based on luminescent detection of ATP, an indicator of metabolically active cells.
(§2) In preparation for the assays, test compounds were serially diluted 3-fold in DMSO from a typical top concentration of 1 mM or 5 mM and plated at 0.5 μL in 384-well, polystyrene, clear bottom, tissue culture treated plates with lids (Greiner Bio-One, Kremsmünster, Austria) to generate 11-point dose response curves. Low control wells (0% kynurenine or 100% cytotoxicity) contained either 0.5 μL of DMSO in the presence of unstimulated (−IFN-γ/−LPS) PBMCs for the mass spectrometry assay or 0.5 μL of DMSO in the absence of cells for the cytotoxicity assay, and high control wells (100% kynurenine or 0% cytotoxicity) contained 0.5 μL of DMSO in the presence of stimulated (+IFN-γ/+LPS) PBMCs for both the mass spectrometry and cytotoxicity assays.
(§3) Frozen stocks of PBMCs were washed and recovered in RPMI 1640 medium (Thermo Fisher Scientific, Inc., Waltham, Mass.) supplemented with 10% v/v heat-inactivated fetal bovine serum (FBS) (Thermo Fisher Scientific, Inc., Waltham, Mass.), and 1× penicillin-streptomyci antibiotic solution (Thermo Fisher Scientific, Inc., Waltham, Mass.). The cells were diluted to 1,000,000 cells/mL in the supplemented RPMI 1640 medium. 50 μL of either the cell suspension, for the mass spectrometry assay, or medium alone, for the cytotoxicity assay, were added to the low control wells, on the previously prepared 384-well compound plates, resulting in 50,000 cells/well or 0 cells/well respectively. IFN-γ and LPS were added to the remaining cell suspension at final concentrations of 100 ng/ml and 50 ng/ml respectively, and 50 μL of the stimulated cells were added to all remaining wells on the 384-well compound plates. The plates, with lids, were then placed in a 37 °C, 5% CO2 humidified incubator for 2 days.
(§4) Following incubation, the 384-well plates were removed from the incubator and allowed to equilibrate to room temperature for 30 minutes. For the cytotoxicity assay, CellTiter-Glo® was prepared according to the manufacturer's instructions, and 40 μL were added to each plate well. After a twenty-minute incubation at room temperature, luminescence was read on an EnVision® Multilabel Reader (PerkinElmer Inc., Waltham, Mass.). For the mass spectrometry assay, 10 μL of supernatant from each well of the compound-treated plates were added to 40 μL of acetonitrile, containing 10 μM of an internal standard for normalization, in 384-well, polypropylene, V-bottom plates (Greiner Bio-One, Kremsmünster, Austria) to extract the organic analytes. Following centrifugation at 2000 rpm for 10 minutes, 10 μL from each well of the acetonitrile extraction plates were added to 90 μL of sterile, distilled H2O in 384-well, polypropylene, V-bottom plates for analysis of kynurenine and the internal standard on the RapidFire 300 (Agilent Technologies, Santa Clara, Calif.) and 4000 QTRAP MS (SCIEX, Framingham, Mass.). MS data were integrated using Agilent Technologies' RapidFire Integrator software, and data were normalized for analysis as a ratio of kynurenine to the internal standard. […]

[2] = biological target: T1, indoleamine 2, 3-dioxygenase (IDO1) (Homo sapiens, UniProt P14902); assay: IDO1 PBMC RapidFire MS assay (kynurenine detection); type: cell-based; details: IFN-γ/LPS-stimulated human PBMC, 2 days, kynurenine by mass spectrometry; read-out: PBMC pIC50 (converted)
T1 construct: to induce the expression of indoleamine 2, 3-dioxygenase (IDO1); host or cells: human PBMC stimulated with IFN-gamma and LPS
T1 sequence (P14902 whole entry): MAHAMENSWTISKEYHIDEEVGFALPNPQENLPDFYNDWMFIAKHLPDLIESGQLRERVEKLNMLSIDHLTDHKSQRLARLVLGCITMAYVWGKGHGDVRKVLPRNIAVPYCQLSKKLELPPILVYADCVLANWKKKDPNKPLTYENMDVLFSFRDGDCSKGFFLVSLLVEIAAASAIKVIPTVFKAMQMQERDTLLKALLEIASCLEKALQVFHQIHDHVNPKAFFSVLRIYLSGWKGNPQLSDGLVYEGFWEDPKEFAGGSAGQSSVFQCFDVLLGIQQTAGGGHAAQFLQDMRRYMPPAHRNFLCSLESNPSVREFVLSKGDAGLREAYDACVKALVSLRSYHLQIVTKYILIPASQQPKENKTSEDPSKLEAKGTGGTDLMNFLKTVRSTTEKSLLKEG
Experimental: as §1, §2, §3, §4

Rat PK = type: in vivo; details: male Han Wistar rats, n = 3

Compound	IC50 [1]	IC50 [2]	AUC(0-inf) (Rat PK; rat, in vivo, PO, 3 mg/kg)	AUC(0-t) (Rat PK; rat, in vivo, PO, 3 mg/kg)	Cmax (Rat PK; rat, in vivo, PO, 3 mg/kg)	Tmax (Rat PK; rat, in vivo, PO, 3 mg/kg)	half-life (Rat PK; rat, in vivo, PO, 3 mg/kg)	further results
O=C(Nc1ccc(Cl)cc1)[C@@H]1C[C@]12CC[C@@H](c1ccnc3ccccc31)CC2 (relative stereo) [Example 2, trans-N-(4-chlorophenyl)-6-(quinolin-4-yl)spiro[2.5]octane-1-carboxamide]	> 10000 nM	126 nM	–	–	–	–	–	–
O=C(CC1CC2(CCC(c3ccnc4ccccc34)CC2)C1)Nc1ccc(Cl)cc1 (centres unmarked) [Example 5, N-(4-chlorophenyl)-2-(7-(quinolin-4-yl)spiro[3.5]nonan-2-yl)acetamide]	> 10000 nM	63.1 nM	–	–	–	–	–	–
O=C(Nc1ccc(Cl)cc1)[C@@H]1C[C@]12CC[C@H](c1ccnc3ccccc31)CC2 (relative stereo) [Example 1, cis-N-(4-chlorophenyl)-6-(quinolin-4-yl)spiro[2.5]octane-1-carboxamide]	> 10000 nM	63.1 nM	14000 ng·h/mL	12300 ng·h/mL	1000 ng/mL	1 h	7.16 h	F (Rat PK; PO, 3 mg/kg): 60.2%; AUC(0-inf) (Rat PK; rat, in vivo, IV, 1 mg/kg): 4660 ng·h/mL; AUC(0-t) (Rat PK; rat, in vivo, IV, 1 mg/kg): 4450 ng·h/mL; MRT inf (Rat PK; rat, in vivo, IV, 1 mg/kg): 7.35 h; clearance (Rat PK; rat, in vivo, IV, 1 mg/kg): 3.58 mL/min/kg; half-life (Rat PK; rat, in vivo, IV, 1 mg/kg): 5.36 h; Vd (Rat PK; rat, in vivo, IV, 1 mg/kg, read-out: Vss): 1.58 L/kg
O=C(NC1CC2(CCC(c3ccnc4ccccc34)CC2)C1)c1ccc(Cl)cc1 (centres unmarked) [Example 3, 4-chloro-N-(7-(quinolin-4-yl)spiro[3.5]nonan-2-yl)benzamide]	> 10000 nM	79.4 nM	–	–	–	–	–	–
O=C(NC1CC2(CCC(c3ccnc4ccccc34)CC2)C1)c1ccc(Cl)s1 (centres unmarked) [Example 4, 5-chloro-N-(7-(quinolin-4-yl)spiro[3.5]nonan-2-yl)thiophene-2-carboxamide]	> 10000 nM	20 nM	15500 ng·h/mL	14400 ng·h/mL	1140 ng/mL	3 h	5.89 h	–
O=C(Nc1ccc(Cl)cc1)C1CC2(CCC(c3ccnc4ccc(F)cc34)CC2)C1 (centres unmarked) [Example 6, N-(4-chlorophenyl)-7-(6-fluoroquinolin-4-yl)spiro[3.5]nonane-2-carboxamide]	> 10000 nM	15.8 nM	–	–	–	–	–	–
